Measured values reported in ChEMBL document CHEMBL1201862, “PubChem BioAssay data set” (2004).
The source made the active and inactive calls. Unless noted, no cut-off for these calls is given here.

Experiments:
[1] = Fluorescence polarization-based biochemical high throughput dose response assay for activators of the Protein Kinase A-R1A (PKA-R1A) complex. [Related pubchem assays (depositor defined):AID504704, AID504707, AID504799, AID504800]
[2] = Fluorescence polarization-based biochemical high throughput dose response assay for activators of the Protein Kinase A-R2B (PKA-R2B) complex. [Related pubchem assays (depositor defined):AID504700, AID504704, AID504796, AID504797]
[3] = biological target: Trypsin (Sus scrofa, UniProt P00761); assay: trypsin protease activity blockade – biochemical, quenched peptide fluorescence, cherry-pick, selectivity assay for Rce1 protease inhibitor project, dose response (AID 488789)
[4] = biological target: T1, CAAX prenyl protease 2 (Saccharomyces cerevisiae S288c, UniProt Q03530); format: biochemical
T1 sequence (Q03530 whole entry): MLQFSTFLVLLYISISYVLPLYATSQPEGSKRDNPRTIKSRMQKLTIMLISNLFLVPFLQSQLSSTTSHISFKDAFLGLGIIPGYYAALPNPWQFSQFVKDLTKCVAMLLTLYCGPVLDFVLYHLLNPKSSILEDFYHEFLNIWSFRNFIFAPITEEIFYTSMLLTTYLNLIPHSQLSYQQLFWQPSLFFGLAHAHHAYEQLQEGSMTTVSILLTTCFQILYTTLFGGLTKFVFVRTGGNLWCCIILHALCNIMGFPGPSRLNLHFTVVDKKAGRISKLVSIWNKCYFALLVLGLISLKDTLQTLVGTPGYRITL

[5] = biological target: CAAX prenyl protease 1 (Saccharomyces cerevisiae S288c, UniProt P47154); assay: yeast CAAX protease Ste24 inhibition – biochemical, S. cerevisiae, plate reader, cherry-pick, dose response (AID 488815)
[6] = biological target: Lysine-specific demethylase 4A (Homo sapiens, UniProt O75164); assay: inhibition of JMJD2A H3K9me3 demethylation – biochemical, DELFIA europium, cherry-picked samples, selectivity assay for GASC-1 inhibitor project, dose response (AID 488840)
[7] = biological target: Lysine-specific demethylase 4C (Homo sapiens, UniProt Q9H3R0); assay: inhibition of JMJD2C H3K9me3 demethylation – biochemical, DELFIA europium, cherry-picked samples, dose response (AID 488835); format: functional
[8] = test system: A-375; assay: MITF: Counter assay: A375 proliferation Measured in Cell-Based System Using Plate Reader - 2084-03_Inhibitor_Dose_DryPowder_Activity. [Related pubchem assays (depositor defined):AID488944]; format: functional; conditions: Homo sapiens
[9] = test system: A-375; assay: proliferation inhibition in MITF-low A375 cells – cell-based, cherry-pick samples, set 2, counter-screen for MITF modulator project, dose response (AID 540335); format: functional; conditions: Homo sapiens
[10] = biological target: T2, Tyrosine-protein phosphatase non-receptor type 7 (Homo sapiens, UniProt P35236); format: functional
T2 sequence (P35236 whole entry): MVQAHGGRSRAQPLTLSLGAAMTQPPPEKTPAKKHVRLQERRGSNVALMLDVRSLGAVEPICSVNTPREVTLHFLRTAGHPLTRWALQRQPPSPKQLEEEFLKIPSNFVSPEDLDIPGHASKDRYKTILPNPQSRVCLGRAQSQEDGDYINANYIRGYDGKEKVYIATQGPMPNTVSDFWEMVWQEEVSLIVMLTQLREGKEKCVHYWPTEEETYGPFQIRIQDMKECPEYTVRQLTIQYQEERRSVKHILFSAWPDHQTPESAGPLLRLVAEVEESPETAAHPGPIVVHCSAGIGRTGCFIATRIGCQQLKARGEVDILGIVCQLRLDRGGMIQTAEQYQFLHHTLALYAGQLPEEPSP

[11] = biological target: T3, Tyrosine-protein phosphatase non-receptor type 22 (Homo sapiens, UniProt Q9Y2R2); format: functional
[12] = biological target: T3, Tyrosine-protein phosphatase non-receptor type 22; format: functional; remark: listed apart in the source
[13] = biological target: T4, Heat shock factor protein 1 (Mus musculus, UniProt P38532); assay: enhancement of HSF1-driven luciferase signal – cell-based, NIH3T3, luminescence, dose retest, confirmation (AID 435004); format: functional;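 note: stress induced by proteasome inhibitor MG132 added 30 min after compound; luciferase reporter driven by HSF1 response element in NIH3T3 cells; actives raise luminescence as potentiators of the MG132 stress response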
T4 sequence (P38532 whole entry): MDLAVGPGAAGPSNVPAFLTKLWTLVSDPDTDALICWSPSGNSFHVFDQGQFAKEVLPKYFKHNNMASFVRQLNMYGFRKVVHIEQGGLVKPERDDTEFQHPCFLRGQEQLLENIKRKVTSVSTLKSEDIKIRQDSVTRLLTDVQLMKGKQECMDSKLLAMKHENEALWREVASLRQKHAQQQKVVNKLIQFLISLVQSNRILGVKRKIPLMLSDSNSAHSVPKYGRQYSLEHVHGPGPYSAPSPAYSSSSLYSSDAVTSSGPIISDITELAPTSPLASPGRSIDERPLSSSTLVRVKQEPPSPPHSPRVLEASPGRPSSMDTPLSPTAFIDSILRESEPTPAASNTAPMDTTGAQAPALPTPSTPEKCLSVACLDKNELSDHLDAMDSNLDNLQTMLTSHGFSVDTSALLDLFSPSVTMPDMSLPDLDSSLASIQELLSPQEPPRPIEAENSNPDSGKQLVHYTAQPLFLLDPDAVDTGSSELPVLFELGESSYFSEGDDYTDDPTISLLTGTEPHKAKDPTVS

[14] = test system: HEK293; assay: inhibition of NOD1-driven NF-kB reporter – cell-based, luminescence, uHTS, primary screen (AID 1578); format: functional; conditions: Homo sapiens
[15] = test system: HEK293; assay: cells; format: functional, cell-based; conditions: Homo sapiens
[16] = test system: HEK293; assay: cells; format: functional, cell-based; conditions: Homo sapiens; remark: listed apart in the source
[17] = biological target: Nucleotide-binding oligomerization domain-containing protein 2 (Homo sapiens, UniProt Q9HC29); assay: inhibition of NOD2-driven NF-kB reporter – cell-based, luminescence, uHTS, HEK293 (AID 1566); format: functional
[18] = test system: HEK293; assay: NOD2 signaling inhibitors in MDP-stimulated cells, cell-based, uHTS, luminescence (AID 2001); format: functional; conditions: Homo sapiens
[19] = test system: HEK293; assay: cells; format: functional, cell-based; conditions: Homo sapiens; remark: listed apart in the source
[20] = biological target: Glycogen synthase kinase-3 beta (Homo sapiens, UniProt P49841); assay: Inhibition of Human GSK-3 beta Activity Measured in Biochemical System Using Microfluidics - 2063-05_Inhibitor_Dose_DryPowder_Activity. [Related pubchem assays (depositor defined):AID2709]
[21] = biological target: UDP-galactopyranose mutase (Mycobacterium tuberculosis, UniProt P9WIQ1); assay: Inhibitors of Mycobacterium tuberculosis UDP-galactopyranose mutase (UGM) enzyme Measured in Biochemical System Using Plate Reader - 2105-02_Inhibitor_Dose_CherryPick_Activity. [Related pubchem assays (depositor defined):AID504439]
[22] = blockers of SFLLRN-triggered platelet ATP secretion – cell-based, human platelets, luminescence, dry powder, dose response (AID 493100); format: functional
[23] = Luminescence Cell-Based Dose Response Follow up to Identify Inhibitors of Platelet Dense Granule Release. [Related pubchem assays (depositor defined):AID1663, AID1678, AID1889, AID2519]; format: functional
[24] = test system: Candida albicans; assay: Candida growth effect without fluconazole – C. albicans CaCi-2, dry powder, counter-screen for antifungal drug resistance project, dose response (AID 488802); format: functional, organism-based
[25] = test system: NIH3T3; assay: mammalian cell viability counter-check – Alamar Blue, fluconazole, dry powder, cytotoxicity control for antifungal drug resistance project, dose response (AID 488809); format: functional, cell-based; conditions: Mus musculus

T3 sequence (Q9Y2R2 whole entry): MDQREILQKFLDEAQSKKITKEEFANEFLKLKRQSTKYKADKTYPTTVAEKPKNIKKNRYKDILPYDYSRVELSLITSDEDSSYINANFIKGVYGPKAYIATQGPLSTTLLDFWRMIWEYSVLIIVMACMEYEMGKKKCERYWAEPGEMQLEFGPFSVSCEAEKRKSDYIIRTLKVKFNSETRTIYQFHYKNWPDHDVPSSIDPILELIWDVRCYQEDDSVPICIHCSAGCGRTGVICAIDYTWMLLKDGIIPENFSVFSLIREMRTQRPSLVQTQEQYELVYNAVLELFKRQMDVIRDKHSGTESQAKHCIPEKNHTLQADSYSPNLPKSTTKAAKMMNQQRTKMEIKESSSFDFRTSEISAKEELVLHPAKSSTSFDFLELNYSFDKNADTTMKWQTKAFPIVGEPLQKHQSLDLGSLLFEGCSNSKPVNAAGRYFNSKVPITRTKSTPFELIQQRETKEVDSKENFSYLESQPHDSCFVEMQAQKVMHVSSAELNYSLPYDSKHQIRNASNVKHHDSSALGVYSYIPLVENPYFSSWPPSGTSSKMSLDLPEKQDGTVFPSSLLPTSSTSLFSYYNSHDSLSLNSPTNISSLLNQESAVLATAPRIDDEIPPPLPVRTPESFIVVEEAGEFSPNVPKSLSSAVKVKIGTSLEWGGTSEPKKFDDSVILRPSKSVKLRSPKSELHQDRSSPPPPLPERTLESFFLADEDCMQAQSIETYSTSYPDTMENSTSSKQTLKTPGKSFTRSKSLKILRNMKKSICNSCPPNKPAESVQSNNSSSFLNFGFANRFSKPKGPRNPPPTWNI
Lysine-specific demethylase 4C, sequence (Q9H3R0 whole entry): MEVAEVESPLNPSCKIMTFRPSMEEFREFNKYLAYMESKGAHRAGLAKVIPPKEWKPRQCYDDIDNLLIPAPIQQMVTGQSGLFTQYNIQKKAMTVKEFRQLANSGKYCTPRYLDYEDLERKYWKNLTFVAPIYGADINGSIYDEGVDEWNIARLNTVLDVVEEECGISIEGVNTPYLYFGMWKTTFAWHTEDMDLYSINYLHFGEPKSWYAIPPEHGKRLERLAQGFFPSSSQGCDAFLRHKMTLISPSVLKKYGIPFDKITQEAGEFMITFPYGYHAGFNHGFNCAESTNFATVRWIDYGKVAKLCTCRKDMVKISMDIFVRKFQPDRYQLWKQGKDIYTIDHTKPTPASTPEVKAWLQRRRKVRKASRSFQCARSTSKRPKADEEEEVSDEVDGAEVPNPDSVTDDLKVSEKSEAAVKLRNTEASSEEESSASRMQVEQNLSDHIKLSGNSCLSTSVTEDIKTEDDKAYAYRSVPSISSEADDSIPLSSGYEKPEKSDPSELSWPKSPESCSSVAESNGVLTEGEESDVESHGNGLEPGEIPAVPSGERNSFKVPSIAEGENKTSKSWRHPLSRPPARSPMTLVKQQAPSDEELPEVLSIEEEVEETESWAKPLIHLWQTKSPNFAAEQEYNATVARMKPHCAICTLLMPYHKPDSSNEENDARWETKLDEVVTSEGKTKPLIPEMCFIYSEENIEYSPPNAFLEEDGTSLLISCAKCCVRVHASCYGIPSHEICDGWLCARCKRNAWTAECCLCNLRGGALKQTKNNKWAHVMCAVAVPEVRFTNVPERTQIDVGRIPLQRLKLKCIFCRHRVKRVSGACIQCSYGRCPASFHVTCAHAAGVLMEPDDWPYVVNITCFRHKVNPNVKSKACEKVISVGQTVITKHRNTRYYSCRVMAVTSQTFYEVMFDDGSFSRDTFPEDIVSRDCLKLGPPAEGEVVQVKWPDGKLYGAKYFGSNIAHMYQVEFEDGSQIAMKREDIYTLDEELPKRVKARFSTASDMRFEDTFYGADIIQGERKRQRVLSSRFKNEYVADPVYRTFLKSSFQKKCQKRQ
Trypsin, sequence (P00761 whole entry): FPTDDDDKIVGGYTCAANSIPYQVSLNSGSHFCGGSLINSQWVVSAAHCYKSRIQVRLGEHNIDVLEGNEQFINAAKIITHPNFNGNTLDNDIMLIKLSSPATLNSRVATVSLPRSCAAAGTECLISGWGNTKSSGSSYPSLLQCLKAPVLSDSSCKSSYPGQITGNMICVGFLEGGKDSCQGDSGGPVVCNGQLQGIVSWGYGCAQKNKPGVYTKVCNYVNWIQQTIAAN
UDP-galactopyranose mutase, sequence (P9WIQ1 whole entry): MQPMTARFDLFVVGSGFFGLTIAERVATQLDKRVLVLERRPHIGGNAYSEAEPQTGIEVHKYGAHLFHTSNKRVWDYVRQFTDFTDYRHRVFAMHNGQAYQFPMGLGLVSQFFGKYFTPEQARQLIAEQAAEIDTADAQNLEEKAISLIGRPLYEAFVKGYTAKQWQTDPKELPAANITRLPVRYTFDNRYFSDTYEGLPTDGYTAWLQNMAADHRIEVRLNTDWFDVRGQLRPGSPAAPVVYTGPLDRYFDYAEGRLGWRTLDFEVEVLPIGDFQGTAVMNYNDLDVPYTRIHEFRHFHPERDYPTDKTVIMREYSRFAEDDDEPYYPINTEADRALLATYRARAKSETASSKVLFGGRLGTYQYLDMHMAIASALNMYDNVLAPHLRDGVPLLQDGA
CAAX prenyl protease 1, sequence (P47154 whole entry): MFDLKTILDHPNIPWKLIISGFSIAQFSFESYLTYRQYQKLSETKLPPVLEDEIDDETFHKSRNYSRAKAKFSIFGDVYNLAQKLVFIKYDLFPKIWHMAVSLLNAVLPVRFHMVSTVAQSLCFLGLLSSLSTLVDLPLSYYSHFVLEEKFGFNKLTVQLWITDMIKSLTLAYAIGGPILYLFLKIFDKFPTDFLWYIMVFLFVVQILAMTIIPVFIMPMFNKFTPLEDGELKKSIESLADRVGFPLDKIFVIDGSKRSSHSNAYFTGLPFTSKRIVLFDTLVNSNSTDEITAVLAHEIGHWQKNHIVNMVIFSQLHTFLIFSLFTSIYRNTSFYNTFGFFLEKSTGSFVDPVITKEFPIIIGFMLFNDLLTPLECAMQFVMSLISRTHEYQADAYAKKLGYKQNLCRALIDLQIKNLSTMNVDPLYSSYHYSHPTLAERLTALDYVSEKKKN
Lysine-specific demethylase 4A, sequence (O75164 whole entry): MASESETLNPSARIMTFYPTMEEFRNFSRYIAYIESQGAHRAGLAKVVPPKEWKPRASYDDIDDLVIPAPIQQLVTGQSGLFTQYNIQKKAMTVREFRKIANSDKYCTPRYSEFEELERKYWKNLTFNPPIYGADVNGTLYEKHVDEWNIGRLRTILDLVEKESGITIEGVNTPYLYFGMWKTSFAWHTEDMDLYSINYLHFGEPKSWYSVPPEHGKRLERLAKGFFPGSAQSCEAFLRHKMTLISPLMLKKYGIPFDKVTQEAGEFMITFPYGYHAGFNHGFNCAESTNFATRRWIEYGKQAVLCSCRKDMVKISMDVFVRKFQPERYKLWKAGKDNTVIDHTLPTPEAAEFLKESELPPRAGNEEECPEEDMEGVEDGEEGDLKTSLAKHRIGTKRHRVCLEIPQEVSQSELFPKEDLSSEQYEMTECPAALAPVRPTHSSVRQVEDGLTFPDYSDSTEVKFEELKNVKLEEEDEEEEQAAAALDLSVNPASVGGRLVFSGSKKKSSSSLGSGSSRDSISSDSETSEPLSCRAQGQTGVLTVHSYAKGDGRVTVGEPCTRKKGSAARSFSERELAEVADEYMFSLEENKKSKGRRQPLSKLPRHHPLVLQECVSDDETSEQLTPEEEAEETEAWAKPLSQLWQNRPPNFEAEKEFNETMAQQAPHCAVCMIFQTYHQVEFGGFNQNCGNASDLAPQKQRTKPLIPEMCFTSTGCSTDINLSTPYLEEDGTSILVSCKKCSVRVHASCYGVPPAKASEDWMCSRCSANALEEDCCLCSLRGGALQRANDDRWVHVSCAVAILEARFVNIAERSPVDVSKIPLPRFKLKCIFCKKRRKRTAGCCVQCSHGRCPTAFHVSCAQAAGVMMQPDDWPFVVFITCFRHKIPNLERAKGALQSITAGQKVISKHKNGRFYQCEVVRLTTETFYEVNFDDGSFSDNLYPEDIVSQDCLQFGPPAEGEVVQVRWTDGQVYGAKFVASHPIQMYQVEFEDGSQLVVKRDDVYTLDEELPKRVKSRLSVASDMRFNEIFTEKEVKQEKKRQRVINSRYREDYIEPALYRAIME
Glycogen synthase kinase-3 beta, sequence (P49841 whole entry): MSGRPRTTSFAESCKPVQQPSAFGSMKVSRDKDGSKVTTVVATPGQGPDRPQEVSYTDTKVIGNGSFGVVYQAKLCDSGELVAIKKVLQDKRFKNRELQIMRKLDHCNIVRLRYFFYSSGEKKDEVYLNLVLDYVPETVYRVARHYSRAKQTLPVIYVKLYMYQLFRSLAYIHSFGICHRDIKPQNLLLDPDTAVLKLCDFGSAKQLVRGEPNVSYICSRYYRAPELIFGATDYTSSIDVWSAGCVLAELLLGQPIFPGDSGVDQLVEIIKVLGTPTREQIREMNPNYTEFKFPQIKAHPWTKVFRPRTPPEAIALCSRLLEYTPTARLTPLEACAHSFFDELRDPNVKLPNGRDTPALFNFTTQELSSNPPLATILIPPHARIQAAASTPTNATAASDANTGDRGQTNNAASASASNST

CCOP1(=O)OCC2OC(n3cnc4c(N)ncnc43)C(O)C2O1 (stereo not given)
EC50 [1]: 2.68 µM (active)
EC50 [2]: 3.75 µM (active)

Cc1cc(C)n2cc(CSc3ncccc3C(=O)O)nc2n1
AC50 [3]: 10.8 µM (active)
AC50 [4]: 57.7 µM (active)
AC50 [5]: 6.59 µM (active)

CCC(Sc1nc(N)c(NC(=O)c2ccc(Br)o2)c(O)n1)C(=O)O (stereo not given)
AC50 [6]: 17.5 µM (active)
AC50 [7]: 5.06 µM (active)

c1cc(CSc2nnc(-c3ccc4c(c3)OCO4)o2)ccn1
AC50 [8]: > 35 µM (active)
AC50 [9]: > 35 µM (active)

O=C(CC1C(=O)N(Cc2ccccc2)C(=S)N1CCN1CCOCC1)Nc1ccc(F)cc1 (stereo not given)
IC50 [10]: > 79.4 µM (inactive)
IC50 [11]: > 79.4 µM (inactive)
IC50 [12]: > 79.4 µM (inactive)
EC50 [13]: > 260 µM (inactive)

Cc1ccc(-n2c(C)c([N+](=O)[O-])c3ccc(O)cc32)cc1
EC50 [14]: 16 µM (active)
IC50 [15]: 1.05 µM (active)
IC50 [16]: > 20 µM (inactive)
EC50 [17]: > 20 µM (inactive)
IC50 [18]: 1.18 µM (active)
IC50 [19]: > 20 µM (inactive)
AC50 [20]: < 0.068 µM (active)

CCCCCCN1C=CC=C/C1=C\C=C(C#N)C#N
AC50 [21]: 44.1 µM (active)

O=C(Nc1ccccc1)c1ccccc1Br
AC50 [22]: 5.98 µM (active)
EC50 [23]: 1.97 µM (active)

CCCNC(=O)Cn1nc(-c2ccccc2)c2cc(Cl)ccc21
AC50 [24]: 83.4 µM (active)
AC50 [25]: 28.9 µM (active)
